According to US20220340629A1, “Myosin Derived Peptides and Related Compounds with Anticoagulant Activities” (THE SCRIPPS RESEARCH INSTITUTE, priority 0001, published 2022):
Like-named read-outs stand apart in the source and are kept apart here. Non-standard residues stand in square brackets, D forms with d. Residues, ends and D or L forms follow the SMILES beside them. No end group written: not given here. *: point of attachment. Arachidoyl = CCCCCCCCCCCCCCCCCCCC(=O)*; NMeN = CN[C@@H](CC(N)=O)C(=O)O; Nle = CCCC[C@H](N)C(=O)O

Assays:
[1] = biological target: skeletal muscle myosin-supported prothrombin activation by factors Xa and Va (Homo sapiens, UniProt P00742); test: Assay 1A: prothrombin activation by factor Xa/factor Va/myosin in purified system; type: biochemical, human factors Xa and Va; rabbit skeletal muscle myosin; conditions: purified system
[2] = biological target: phospholipid-supported prothrombin activation by factors Xa and Va (Homo sapiens, UniProt P00742); test: Assay 1C: phospholipid vesicle (PC/PS 80%/20%)-supported prothrombin activation; type: biochemical
[3] = Metabolite identification after incubation in mouse plasma; type: in vitro ADME; conditions: incubated in mouse plasma, FIG. 8
[4] = test system: thrombin generation in human platelet poor plasma with skeletal muscle myosin; test: Assay 2A: thrombin generation, recalcification of human platelet poor plasma + myosin; type: biochemical; conditions: human platelet poor plasma 30%, myosin 50 nM, CaCl2 10 mmol/L; read-out: 2A (recalcification +myosin)
Procedure, shortened: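 Pooled normal human platelet-poor plasma (30%) preincubated 5 min at 37° C with 50 nM skeletal muscle myosin and peptide in DMSO. Coagulation triggered with 10 mmol/L CaCl2 plus fluorogenic Z-Gly-Gly-Arg-AMC; thrombin generation followed 25 min (ex 360/em 460 nm). IC50 = peptide concentration giving 50% inhibition of thrombin generation.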

[5] = test system: thrombin generation in human whole blood; test: Assay 4: thrombin generation in recalcified human whole blood; type: biochemical
Procedure: In addition to purified protein system and human plasma, assays using whole blood (Assay 4) were also performed to examine anti-coagulant activities of the peptides and derivative compounds. In these assays, freshly drawn anticoagulated human whole blood (80 μL aliquot) was incubated with peptide in DMSO or DMSO alone (control) for 5 min at 37° C. Then, fluorogenic thrombin substrate solution (Z-Gly-Gly-Arg-AMC) (I-1140) with 10 mmol/L CaCl2 (final) alone was added to the reaction mixture (total 110 μl) in 96 well plate to initiate coagulation. Thrombin generation was followed continuously for 25 min using SPECTRAmax GEMINI XS fluorometer (Molecular Devices, Sunnyvale, Calif.) with excitation and emission wavelengths set at 360 and 460 nm, respectively. The first derivative of fluorescence versus time was used to produce thrombin generation curves with the correction for substrate consumption and inner filter effect. IC50 were determined using a curve fit program in Prism7.0 (GraphPad Software, San Diego, Calif.).

[6] = test system: skeletal muscle myosin-supported prothrombin activation by factors Xa and Va; test: Assay 1A: prothrombin activation by factor Xa/factor Va/myosin in purified system; type: biochemical, human factors Xa and Va; rabbit skeletal muscle myosin
[7] = biological target: T1, prothrombin activation by factor Xa and factor Va (no myosin) (Homo sapiens, UniProt P00742); test: Assay 1B: prothrombin activation by factor Xa/factor Va, no myosin; type: biochemical; conditions: purified system, no myosin
T1 construct: the same reaction mixture of factor Xa, factor Va and prothrombin

[8] = test system: thrombin generation in human plasma; test: Thrombin generation assay in pooled normal human plasma (Examples 3 and 4); type: biochemical; conditions: screened at 25 μM, FIG. 3A
Procedure: Thrombin generation assay in pooled human plasma: The effect of synthetic peptides on thrombin generation in pooled normal human plasma (George King Bio-medical, Inc., Overland Park, KS) was tested as described (1,11). Briefly, normal human plasma (30 μl) was mixed with CTI, followed by the addition of peptide. Then, tissue factor (TF) (Innovin) (0.5[…] pM final) containing 30 mM Ca^++ in TBSA with fluorogenic thrombin substrate solution (I-1140) (Bachem Americas, Inc., Torrance, Calif.) were added to the plasma to initiate coagulation activation. The first derivative of the time course data for substrate hydrolysis yielded the thrombin generation curve, allowing measurement of thrombin generation during the initiation, propagation and termination phases of thrombin generation and the value for peak thrombin generated.

[9] = biological target: T2, Human factor Xa (human, UniProt P00742 41-179; P00742 235-488, limits assumed); test: cell-based or functional assay
[10] = biological target: T2, Human factor Xa; test: cell-based or functional assay; remark: listed apart in the source
[11] = skeletal muscle myosin, factor Va 5 nM, factor Xa 0.2 nM, prothrombin 0.75 μM, 10 min, read-out: 1A (+myosin)

Sequence of skeletal muscle myosin-supported prothrombin activation by factors Xa and Va (Homo sapiens, UniProt P00742) (P00742 41-179): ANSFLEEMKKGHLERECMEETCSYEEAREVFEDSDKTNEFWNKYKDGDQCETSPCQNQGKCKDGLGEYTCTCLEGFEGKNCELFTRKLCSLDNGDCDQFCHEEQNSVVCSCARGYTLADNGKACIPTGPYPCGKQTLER
Sequence of skeletal muscle myosin-supported prothrombin activation by factors Xa and Va (Homo sapiens, UniProt P00742) (P00742 235-488): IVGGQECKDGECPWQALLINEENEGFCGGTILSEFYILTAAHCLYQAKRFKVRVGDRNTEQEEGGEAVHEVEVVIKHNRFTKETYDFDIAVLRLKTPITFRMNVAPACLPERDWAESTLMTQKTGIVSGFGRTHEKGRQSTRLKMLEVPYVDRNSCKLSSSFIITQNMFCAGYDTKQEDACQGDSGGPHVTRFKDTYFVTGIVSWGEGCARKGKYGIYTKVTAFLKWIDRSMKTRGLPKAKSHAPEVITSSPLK
Sequence of skeletal muscle myosin-supported prothrombin activation by factors Xa and Va (Homo sapiens, UniProt P00742) (P12259 29-737 partner): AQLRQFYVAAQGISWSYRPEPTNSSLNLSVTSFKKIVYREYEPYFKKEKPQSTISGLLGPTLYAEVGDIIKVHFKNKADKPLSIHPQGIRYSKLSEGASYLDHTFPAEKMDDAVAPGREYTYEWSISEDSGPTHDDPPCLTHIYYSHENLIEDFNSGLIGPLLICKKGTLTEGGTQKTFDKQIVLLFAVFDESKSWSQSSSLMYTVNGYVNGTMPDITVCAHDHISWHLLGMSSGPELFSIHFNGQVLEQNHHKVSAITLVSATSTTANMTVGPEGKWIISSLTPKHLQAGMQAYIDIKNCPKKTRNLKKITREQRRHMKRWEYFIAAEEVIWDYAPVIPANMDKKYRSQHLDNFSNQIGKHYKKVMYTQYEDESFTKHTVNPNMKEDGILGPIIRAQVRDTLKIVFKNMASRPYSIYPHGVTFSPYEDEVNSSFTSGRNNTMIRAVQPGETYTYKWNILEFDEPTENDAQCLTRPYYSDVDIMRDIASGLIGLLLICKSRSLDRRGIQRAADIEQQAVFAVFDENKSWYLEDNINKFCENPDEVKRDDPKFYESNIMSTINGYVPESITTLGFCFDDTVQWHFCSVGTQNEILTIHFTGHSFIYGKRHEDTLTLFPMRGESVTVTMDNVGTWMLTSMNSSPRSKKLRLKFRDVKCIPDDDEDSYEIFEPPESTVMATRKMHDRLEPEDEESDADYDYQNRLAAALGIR
Sequence of skeletal muscle myosin-supported prothrombin activation by factors Xa and Va (Homo sapiens, UniProt P00742) (P12259 1574-2224 partner): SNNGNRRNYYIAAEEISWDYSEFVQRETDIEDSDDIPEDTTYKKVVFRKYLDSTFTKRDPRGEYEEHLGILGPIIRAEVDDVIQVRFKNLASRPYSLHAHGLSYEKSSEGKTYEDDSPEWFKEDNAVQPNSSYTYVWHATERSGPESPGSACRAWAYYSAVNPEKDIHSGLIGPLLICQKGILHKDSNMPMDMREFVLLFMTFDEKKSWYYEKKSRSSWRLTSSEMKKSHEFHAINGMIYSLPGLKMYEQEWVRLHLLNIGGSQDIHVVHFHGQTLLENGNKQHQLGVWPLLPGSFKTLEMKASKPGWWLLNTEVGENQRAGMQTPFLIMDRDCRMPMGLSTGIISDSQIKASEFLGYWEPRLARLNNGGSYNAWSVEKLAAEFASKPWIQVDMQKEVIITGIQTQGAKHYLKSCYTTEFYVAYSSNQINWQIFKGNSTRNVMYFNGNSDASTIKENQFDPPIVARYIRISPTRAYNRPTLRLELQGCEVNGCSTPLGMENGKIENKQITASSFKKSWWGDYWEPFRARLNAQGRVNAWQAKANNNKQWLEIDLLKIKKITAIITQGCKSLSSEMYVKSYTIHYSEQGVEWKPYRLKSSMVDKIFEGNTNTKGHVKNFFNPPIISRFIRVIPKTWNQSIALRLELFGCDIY
Sequence of phospholipid-supported prothrombin activation by factors Xa and Va (P00742 41-179 limits assumed): as the sequence (P00742 41-179) above
Sequence of phospholipid-supported prothrombin activation by factors Xa and Va (P00742 235-488 limits assumed): as the sequence (P00742 235-488) above
T2 sequence (P00742 41-179 limits assumed, form in doubt, chain 1 of 2): as the sequence (P00742 41-179) above
T2 sequence (P00742 235-488 limits assumed, form in doubt, chain 2 of 2): as the sequence (P00742 235-488) above
T1 sequence (P00742 41-179 limits assumed): as the sequence (P00742 41-179) above
T1 sequence (P00742 235-488 limits assumed): as the sequence (P00742 235-488) above

Molecule: CC[C@H](C)[C@H](NC(=O)[C@H](C)N)C(=O)N[C@@H](Cc1ccccc1)C(=O)N[C@@H](CS)C(=O)N[C@H](C(=O)N[C@@H](CCC(N)=O)C(=O)N[C@@H](Cc1ccc(O)cc1)C(=O)N[C@@H](CC(N)=O)C(=O)N[C@H](C(=O)N[C@@H](CCCNC(=N)N)C(=O)N[C@@H](CO)C(=O)N[C@@H](Cc1ccccc1)C(=O)N[C@@H](CCSC)C(=O)N[C@@H](CC(N)=O)C(=O)N[C@H](C(=O)N[C@@H](CCCCN)C(=O)N[C@@H](Cc1c[nH]cn1)C(=O)N[C@@H](Cc1c[nH]c2ccccc12)C(=O)N1CCC[C@H]1C(=O)N[C@@H](Cc1c[nH]c2ccccc12)C(=O)N[C@@H](CCSC)C(=O)N[C@@H](CCCCN)C(N)=O)C(C)C)[C@@H](C)CC)[C@@H](C)CC [HC060] (H-AIFCIQYNIRSFMNVKHWPWMK-NH2)
- IC50 [1, 11]: 1100 nM
- 1C (+phospholipid) ([2]; phospholipid vesicle 4 μM, PS 20%/PC 80%, result in words): No activity
- sites of protease cleavage identified from metabolite identification [3]: six

Molecule: CCCC[C@H](NC(=O)[C@H](Cc1c[nH]c2ccccc12)NC(=O)[C@@H]1CCCN1C(=O)[C@H](Cc1c[nH]c2ccccc12)NC(=O)[C@H](Cc1c[nH]cn1)NC(=O)[C@H](CCCCN)NC(=O)[C@@H](NC(=O)[C@H](CC(N)=O)NC(=O)[C@H](CCCC)NC(=O)[C@H](Cc1ccccc1)NC(=O)[C@H](CO)NC(=O)[C@H](CCCNC(=N)N)NC(=O)[C@@H](NC(=O)[C@H](CC(N)=O)NC(=O)[C@H](Cc1ccc(O)cc1)NC(=O)[C@H](CCC(N)=O)NC(=O)[C@@H](NC(=O)[C@@H](NC(=O)[C@H](Cc1ccccc1)NC(=O)[C@@H](NC(=O)[C@H](C)N)[C@@H](C)CC)[C@@H](C)O)[C@@H](C)CC)[C@@H](C)CC)C(C)C)C(=O)N[C@@H](CCCCN)C(N)=O [HC179] (H-AIFTIQYNIRSF[Nle]NVKHWPW[Nle]K-NH2; N-terminus assumed)
- IC50 [1, 11]: 400 nM
- IC50 [4]: 8300 nM
- 4 (recalcification), result in words ([5]; result in words): No activity

Molecule: CC[C@H](C)[C@H](NC(=O)[C@H](C)NC(=O)[C@@H](N)CCC(=O)O)C(=O)N[C@@H](Cc1ccccc1)C(=O)N[C@@H](CS)C(=O)N[C@H](C(=O)N[C@@H](CCC(N)=O)C(=O)N[C@@H](Cc1ccc(O)cc1)C(=O)N[C@@H](CC(N)=O)C(=O)N[C@H](C(=O)N[C@@H](CCCNC(=N)N)C(=O)N[C@@H](CO)C(=O)N[C@@H](Cc1ccccc1)C(=O)N[C@@H](CCSC)C(=O)N[C@@H](CC(N)=O)C(=O)N[C@H](C(=O)N[C@@H](CCCCN)C(=O)N[C@@H](Cc1c[nH]cn1)C(=O)N[C@@H](Cc1c[nH]c2ccccc12)C(=O)N1CCC[C@H]1C(=O)N[C@@H](Cc1c[nH]c2ccccc12)C(=O)N[C@@H](CCSC)C(=O)N[C@@H](CCCCN)C(=O)N[C@@H](CC(C)C)C(=O)N[C@@H](Cc1ccccc1)C(=O)N[C@@H](Cc1ccccc1)C(=O)N[C@@H](CCCCN)C(=O)N[C@H](C(=O)N[C@@H](CCCCN)C(=O)N1CCC[C@H]1C(=O)N[C@@H](CC(C)C)C(=O)N[C@@H](CC(C)C)C(=O)N[C@@H](CCCCN)C(=O)N[C@@H](CO)C(=O)N[C@@H](C)C(=O)N[C@@H](CCC(=O)O)C(=O)N[C@H](C(=O)N[C@@H](CCC(=O)O)C(=O)N[C@@H](CCCCN)C(=O)N[C@@H](CCC(=O)O)C(N)=O)[C@@H](C)O)[C@@H](C)CC)C(C)C)[C@@H](C)CC)[C@@H](C)CC [HC815-854] (H-EAIFCIQYNIRSFMNVKHWPWMKLFFKIKPLLKSAETEKE-NH2)
- IC50 ([1]; prothrombin activation with myosin, read-out: 1A (+ myosin) IC50): 1990 nM
- IC50 ([6]; dose-dependency assays, FIG. 2A, myosin 2 nM, read-out: IC50, inhibition of myosin-supported prothrombin activation): 2300 nM
- inhibition of myosin-supported prothrombin activation at 5 μM ([6]; peptide 5 μM, FIG. 1A): inhibitory, to varying degrees
- inhibition of myosin-supported prothrombin activation at 100 μM ([6]; peptide 100 μM, FIG. 1A): inhibited
- IC50 [7]: 10800 nM
- IC50 ([2]; PC/PS vesicles 4 μM, read-out: IC50, phospholipid vesicles containing 20% phosphatidylserine-supported prothrombin activation): 104000 nM
- IC50 ([2]; purified system, phospholipid vesicles, read-out: 1C (+phospholipid)): 7500 nM
- inhibition of thrombin generation in human plasma [8]: significantly inhibited

Molecule: CCCCCCCCCCCCCCCCCCCC(=O)NCCCC[C@H](NC(=O)[C@H](CCCNC(=N)N)NC(=O)[C@@H](NC(=O)[C@H](CC(N)=O)NC(=O)[C@H](Cc1ccc(O)cc1)NC(=O)[C@H](CCC(N)=O)NC(=O)[C@@H](NC(=O)[C@H](CO)NC(=O)[C@H](Cc1ccccc1)NC(=O)[C@@H](NC(=O)[C@H](C)N)[C@@H](C)CC)[C@@H](C)CC)[C@@H](C)CC)C(=O)N[C@@H](Cc1ccccc1)C(=O)N[C@@H](CCCC)C(=O)N(C)[C@@H](CC(N)=O)C(=O)N[C@H](C(=O)N[C@@H](CCCCN)C(=O)N[C@@H](Cc1c[nH]cn1)C(=O)N[C@@H](Cc1c[nH]c2ccccc12)C(=O)N1CCC[C@H]1C(=O)N[C@@H](Cc1c[nH]c2ccccc12)C(=O)N[C@@H](CCCC)C(=O)N[C@@H](CCCCN)C(=O)N[C@@H](CCCCN)C(=O)N[C@@H](CCCCN)C(=O)N[C@@H](CCCCN)C(=O)N[C@@H](CCCCN)C(N)=O)C(C)C [SL-1504-074A, AIFSIQYNIRXF(Nle)(N-MeN)VKHWPW(Nle)KKKKK] (H-AIFSIQYNIRK(Arachidoyl)F[Nle][NMeN]VKHWPW[Nle]KKKKK-NH2)
- IC50 [4]: 1700 nM
- IC50 ([5]; CaCl2 10 mmol/L, read-out: 4 (recalcification)): 300 to 4000 nM

Molecule: ARCRGFLARVEYQRMVERREAIFCIQYNIRSFMNVKHWPW-NH2 (cysteine pairing not given here, Synthetic 40-mer; also called HC061) [Peptide HC796-835 (human skeletal muscle myosin heavy chain MYH2 residues 796-835)]
- IC50, inhibition of myosin-supported prothrombin activation by purified factor Xa, factor Va and Ca++ ions [9]: 1200 nM
- IC50, Assay 1A (+myosin): prothrombin activation by factor Xa/factor Va/myosin in purified system [10]: 1300 nM
